According to PMC7315563, “Bioactive fluorenes. Part III: 2,7-dichloro-9H-fluorene-based thiazolidinone and azetidinone analogues as anticancer and antimicrobial against multidrug resistant strains agents” (BMC Chemistry, 2020):
≈ marks a conversion by molar mass, not a printed value.

Experiments:
[1] = test system: Escherichia coli (E. coli), multidrug resistant clinical isolate; test: agar well diffusion assay; type: cell-based; settings: 24 h, 500 µg/mL of tested compound
Summary of the method: (§1)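 Multidrug-resistant clinical isolates swabbed on Mueller–Hinton agar at about 1–5 × 10^5 CFU/mL; 0.5 cm wells received 50 μL compound at 500 μg/mL in 1% DMSO. Incubation 24 h, 37 °C for bacteria and C. albicans, 25 °C for Aspergillus; inhibition zone diameter measured in mm.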

K. pneumoniae = test: MIC by broth microdilution method (resazurin end point); type: cell-based; settings: Klebsiella pneumoniae, 24 h at 37 °C
Method: (§2) Determination of Minimum inhibitory concentrations (MIC) of flourene derivatives was done using broth microdilution method. The procedure involved preparation of twofold dilutions of the fluorene derivatives ranging from (500–7.8 μg/mL) in sterile Mueller–Hinton broth inside the wells of 96-well microplate (Sarstedt, Germany). The inoculums of test strains prepared from fresh overnight cultures were adjusted to 0.5 McFarland standards, which equals to 1–2 × 10^8 CFU/mL for bacteria, the procedure was done according to CLSI 2012 [42]. […] For this assay the positive control agents were vancomycin (range: 0.7–50 μg/mL), gentamicin (range: 0.15–10 μg/mL) and the negative control was 1% DMSO.
(§3) For proper determination of the MIC end point resazurin dye has been used. A stock solution of resazurin sodium salt powder (Titan Biotech) was prepared at 0.02% (wt/vol) in distilled water, sterilized by filtration through a […] filter into a sterile light protected container then stored protected from light at 4 °C for up to 1 week, or at − […] for long term use, then 10–15% resazurin solution of the total volume in wells was added to each well and incubation for 1–4 h at 37 °C was done. A change in color from blue to pink indicates the growth of bacteria, and MIC was defined as the lowest concentration of the drug that prevented this change in color.

E. coli = test: as above; type: cell-based; settings: Escherichia coli, 24 h at 37 °C
Method: as §2, §3

A549 cells = test: FACS analysis, Annexin V and PI staining; type: cell-based, human; settings: 24 h, 5g 500, 6c 85, 6d 117, 6k 200 µg/mL
Method: (§4) To uncover the mechanism of cell death for the compounds 5h, 6c, 6d and 6k on WI-38, A549, and MDA-MB-231 cells; Annexin v and propedium Iodide (PI) were used. In brief, WI-38, A549, MDA-MB-231 cells were cultured in 10 tissue culture dish with initial number 4 × 10^5 cell/Ml in RPMI growth media. In the following day, cells were treated with 6c, 6d and 6k as the following; (0.0, 500 μg/mL form each drug for WI-38 treatment, 0.0, 85, 117 and 200 μg/mL; respectively, for […] and 0.0, 250 from each for MDA-MB-231 cells treatment). After 24 h incubations, cells were washed and trypsinized and suspended in 50 μL 1X Annexin v binding buffer followed by adding 5 μL FITC Annexin V and incubated for 15 min at room temperature then 5 μL of PI were added to each tube. Finally, 400 μL of 1X Annexin v binding buffer were added to each tube and analyzed using Becton-Dickinson FACS Caliber.

WI-38 cells = test: FACS analysis, Annexin V and PI staining; type: cell-based, human; settings: 24 h, 5g 1000 µg/mL, 6c, 6d, 6k 500 µg/mL
Method: as §4

[2] = test system: Streptococcus pneumoniae (S. pneumoniae), multidrug resistant clinical isolate; test: agar well diffusion assay; type: cell-based; settings: S. pneumoniae; 500 µg/mL of tested compound; 24 h
Summary of the method: as §1

[3] = test system: methicillin-resistant Staphylococcus aureus (MRSA); test: agar well diffusion assay; type: cell-based; settings: 500 µg/mL of tested compound, 24 h
Summary of the method: as §1

P. aeruginosa = test: MIC by broth microdilution method (resazurin end point); type: cell-based; settings: Pseudomonas aeruginosa, 24 h at 37 °C
Method: as §2, §3

Row | MIC (K. pneumoniae) | MIC (E. coli) | MIC (P. aeruginosa) | SMILES | zone of inhibition at 500 µg/mL [1] | apoptotic cell death (of total cell number) (A549 cells) | necrotic cell death (of total cell number) (A549 cells) | apoptotic cell death (of total cell number) (WI-38 cells) | necrotic cell death (of total cell number) (WI-38 cells) | Mean zone of inhibition [2] | Mean zone of inhibition [3]
1 | 125 µg/mL (≈ 235 µM) | 62.5 µg/mL (≈ 117 µM) |  | O=C1C(Cl)C(c2ccc(Cl)cc2)N1c1nc(-c2cc(Cl)cc3c2-c2ccc(Cl)cc2C3)cs1 (centres unmarked) [6c, 3-Chloro-4-(4-chlorophenyl)-1-(4-(2,7-dichloro-9H-fluoren-4-yl)thiazol-2-yl)azetidin-2-one] | 15 mm | 27.32% | 2.1% | 1.22% | 14.5% |  | 
2 |  |  |  | O=C1C(Cl)C(c2ccc(Br)cc2)N1c1nc(-c2cc(Cl)cc3c2-c2ccc(Cl)cc2C3)cs1 (centres unmarked) [6d, 4-(4-Bromophenyl)-3-chloro-1-(4-(2,7-dichloro-9H-fluoren-4-yl)thiazol-2-yl)azetidin-2-one] |  | 36.3% | 2% | 1.34% | 14.1% | no activity | no activity
3 |  | 31.2 µg/mL (≈ 62 µM) | 125 µg/mL (≈ 248 µM) | O=C1C(Cl)C(c2cccs2)N1c1nc(-c2cc(Cl)cc3c2-c2ccc(Cl)cc2C3)cs1 (centres unmarked) [6k, 3-Chloro-1-(4-(2,7-dichloro-9H-fluoren-4-yl)thiazol-2-yl)-4-(thiophen-2-yl)azetidin-2-one] | 14 mm | 32.67% | 1.71% | 0.61% | 9.93% |  | 
